Patent US10221177B2 (HYDRA BIOSCIENCES, INC., priority 2014, dated 2019)

Target: human TRPA1 (Homo sapiens (Human), UniProt O75762)
Experiment: In vitro inhibition of human TRPA1, whole cell patch configuration
Type: cell-based
Settings: current activation 10 μM AITC, tested concentrations 320 pM to 3.2 μM, read-out: hTRPA1 IC50
In short: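 Whole-cell patch clamp, bath 150 mM NaCl, 10 mM HEPES, 1 mM EGTA, 3 mM MgCl2, pH 7.4 (sometimes 2 mM CaCl2, 1 mM MgCl2). Currents recorded continuously at −60 mV or by 400 ms ramps from −40 mV holding every 4 s; inward/outward currents taken at −80/80 mV, with controlled-temperature focal perfusion.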

Chain of human TRPA1 (O75762 whole entry): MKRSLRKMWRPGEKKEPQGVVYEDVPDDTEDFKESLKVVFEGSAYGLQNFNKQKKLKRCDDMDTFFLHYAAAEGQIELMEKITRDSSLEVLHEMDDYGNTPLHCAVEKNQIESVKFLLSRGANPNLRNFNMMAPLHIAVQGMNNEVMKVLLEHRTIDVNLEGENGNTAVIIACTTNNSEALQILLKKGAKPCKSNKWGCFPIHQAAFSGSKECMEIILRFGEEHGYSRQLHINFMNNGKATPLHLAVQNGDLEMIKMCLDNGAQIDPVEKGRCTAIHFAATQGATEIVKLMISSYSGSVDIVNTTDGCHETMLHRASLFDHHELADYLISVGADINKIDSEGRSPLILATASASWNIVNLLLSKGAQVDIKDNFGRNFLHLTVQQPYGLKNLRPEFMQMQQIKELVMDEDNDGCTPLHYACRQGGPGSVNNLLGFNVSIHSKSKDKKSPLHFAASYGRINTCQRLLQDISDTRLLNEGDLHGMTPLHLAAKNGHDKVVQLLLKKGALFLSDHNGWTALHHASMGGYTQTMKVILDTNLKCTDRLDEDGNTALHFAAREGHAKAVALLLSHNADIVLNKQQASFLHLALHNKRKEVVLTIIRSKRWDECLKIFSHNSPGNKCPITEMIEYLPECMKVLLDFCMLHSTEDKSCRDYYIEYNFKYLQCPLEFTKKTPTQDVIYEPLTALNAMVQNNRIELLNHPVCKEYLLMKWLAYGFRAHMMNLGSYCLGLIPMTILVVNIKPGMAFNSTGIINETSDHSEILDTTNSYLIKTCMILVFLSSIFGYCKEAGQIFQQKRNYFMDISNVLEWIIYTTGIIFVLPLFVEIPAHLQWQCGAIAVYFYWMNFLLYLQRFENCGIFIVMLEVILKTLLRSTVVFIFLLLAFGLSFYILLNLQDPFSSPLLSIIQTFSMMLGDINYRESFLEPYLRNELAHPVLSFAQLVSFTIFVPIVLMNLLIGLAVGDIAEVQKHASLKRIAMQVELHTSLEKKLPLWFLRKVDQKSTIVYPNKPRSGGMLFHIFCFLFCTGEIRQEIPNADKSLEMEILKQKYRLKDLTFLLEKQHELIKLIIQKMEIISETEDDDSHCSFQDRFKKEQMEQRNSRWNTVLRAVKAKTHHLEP

SMILES | IC50 [nM]
Cn1c(=O)n(Cc2ccccn2)c(=O)c2c1ncn2CC(=O)Nc1csc(-c2cnc(C(F)(F)F)nc2)n1 [Compound 191, 2-(3-methyl-2,6-dioxo-1-(pyridin-2-ylmethyl)-2,3-dihydro-1H-purin-7(6H)-yl)-N-(2-(2-(trifluoromethyl)pyrimidin-5-yl)thiazol-4-yl)acetamide] | 51
Cn1c(=O)n(Cc2ccccn2)c(=O)c2c1ncn2CC(=O)Nc1cccc(-c2ccc(F)c(F)c2)n1 [Compound 187, N-(6-(3,4-difluorophenyl)pyridin-2-yl)-2-(3-methyl-2,6-dioxo-1-(pyridin-2-ylmethyl)-2,3-dihydro-1H-purin-7(6H)-yl)acetamide] | 74
CC(=O)Cn1c(=O)c2c(ncn2[C@@H](C)C(=O)Nc2cccc(-c3ccc(N4CC5C(C4)C5(F)F)nc3)n2)n(C)c1=O (stereo partly shown) [Compound 65] | 8
Cc1noc(Cn2c(=O)c3c(ncn3CC(=O)Nc3cccc(-c4cnc(C)c(F)c4)n3)n(C)c2=O)n1 [Compound 231, N-(5′-fluoro-6′-methyl-[2,3′-bipyridin]-6-yl)-2-(3-methyl-1-((3-methyl-1,2,4-oxadiazol-5-yl)methyl)-2,6-dioxo-2,3-dihydro-1H-purin-7(6H)-yl)acetamide] | 16
Cc1cc(Cn2c(=O)c3c(ncn3CC(=O)Nc3ccc(N4CCC(C(C)(C)F)CC4)cn3)n(C)c2=O)no1 [Compound 220, N-(5-(4-(2-fluoropropan-2-yl)piperidin-1-yl)pyridin-2-yl)-2-(3-methyl-1-((5-methylisoxazol-3-yl)methyl)-2,6-dioxo-2,3-dihydro-1H-purin-7(6H)-yl)acetamide] | 72
Cc1noc(Cn2c(=O)c3c(ncn3CC(=O)Nc3cncc(-c4cnc(C(F)(F)F)c(C)c4)n3)n(C)c2=O)n1 [Compound 230, 2-(3-methyl-1-((3-methyl-1,2,4-oxadiazol-5-yl)methyl)-2,6-dioxo-2,3-dihydro-1H-purin-7(6H)-yl)-N-(6-(5-methyl-6-(trifluoromethyl)pyridin-3-yl)pyrazin-2-yl)acetamide] | 14
CC(=O)CCn1c(=O)c2c(ncn2CC(=O)Nc2cccc(-c3cnc(C)c(C(F)(F)F)c3)n2)n(C)c1=O [Compound 242, 2-(3-methyl-2,6-dioxo-1-(3-oxobutyl)-2,3-dihydro-1H-purin-7(6H)-yl)-N-(6′-methyl-5′-(trifluoromethyl)-[2,3′-bipyridin]-6-yl)acetamide] | 290
Cc1nc2c(c(=O)n(Cc3ccccn3)c(=O)n2C)n1CC(=O)Nc1cccc(-c2cnc(C(F)(F)F)nc2)n1 [Compound 177, 2-(3,8-dimethyl-2,6-dioxo-1-(pyridin-2-ylmethyl)-2,3-dihydro-1H-purin-7(6H)-yl)-N-(6-(2-(trifluoromethyl)pyrimidin-5-yl)pyridin-2-yl)acetamide] | 42
Cc1cc(Cn2c(=O)c3c(ncn3CC(=O)Nc3cccc(N4CCC(F)(F)CC4)n3)n(C)c2=O)no1 [Compound 196, N-(6-(4,4-difluoropiperidin-1-yl)pyridin-2-yl)-2-(3-methyl-1-((5-methylisoxazol-3-yl)methyl)-2,6-dioxo-2,3-dihydro-1H-purin-7(6H)-yl)acetamide] | 122
Cc1noc(Cn2c(=O)c3c(ncn3CC(=O)Nc3cccc(-c4cnc(C(F)(F)F)c(C)c4)n3)n(C)c2=O)n1 [Compound 222, 2-(3-methyl-1-((3-methyl-1,2,4-oxadiazol-5-yl)methyl)-2,6-dioxo-2,3-dihydro-1H-purin-7(6H)-yl)-N-(5′-methyl-6′-(trifluoromethyl)-[2,3′-bipyridin]-6-yl)acetamide] | 5
CCN(c1ccc(NC(=O)Cn2cnc3c2c(=O)n(Cc2cc(C)on2)c(=O)n3C)cc1)C(F)(F)F [Compound 211, N-(4-(ethyl(trifluoromethyl)amino)phenyl)-2-(3-methyl-1-((5-methylisoxazol-3-yl)methyl)-2,6-dioxo-2,3-dihydro-1H-purin-7(6H)-yl)acetamide] | > 1000
CC(=O)Cn1c(=O)c2c(ncn2[C@@H](C)C(=O)Nc2csc(-c3cnc(C)c(Cl)c3)n2)n(C)c1=O [Compound 81, (S)—N-(2-(5-chloro-6-methylpyridin-3-yl)thiazol-4-yl)-2-(3-methyl-2,6-dioxo-1-(2-oxopropyl)-2,3-dihydro-1H-purin-7(6H)-yl)propanamide] | 10
Cc1cc(Cn2c(=O)c3c(ncn3CC(=O)Nc3cccc(N4CCN(CC(F)(F)F)CC4)n3)n(C)c2=O)no1 [Compound 214, 2-(3-methyl-1-((5-methylisoxazol-3-yl)methyl)-2,6-dioxo-2,3-dihydro-1H-purin-7(6H)-yl)-N-(6-(4-(2,2,2-trifluoroethyl)piperazin-1-yl)pyridin-2-yl)acetamide] | 92
CCC(=O)Cn1c(=O)c2c(ncn2[C@@H](C)C(=O)Nc2csc(-c3ccc(N4CC5CC5C4)nc3)n2)n(C)c1=O (stereo partly shown) [Compound 33] | 1
Cc1noc(Cn2c(=O)c3c(ncn3CC(=O)Nc3csc(-c4cnc(C(F)(F)F)nc4)n3)n(C)c2=O)n1 [Compound 260, 2-(3-methyl-1-((3-methyl-1,2,4-oxadiazol-5-yl)methyl)-2,6-dioxo-2,3-dihydro-1H-purin-7(6H)-yl)-N-(2-(2-(trifluoromethyl)pyrimidin-5-yl)thiazol-4-yl)acetamide] | 17
Cc1noc(Cn2c(=O)c3c(ncn3CC(=O)Nc3cccc(-c4cnc(C)c(C(F)(F)F)c4)n3)n(C)c2=O)n1 [Compound 241] | 1
CC(=O)Cn1c(=O)c2c(ncn2[C@@H](C)C(=O)Nc2cccc(-c3cnc(N4CC5C(C4)C5(F)F)cn3)n2)n(C)c1=O (stereo partly drawn) [Compound 257, (2S)—N-(6-(5-(6,6-difluoro-3-azabicyclo[3.1.0]hexan-3-yl)pyrazin-2-yl)pyridin-2-yl)-2-(3-methyl-2,6-dioxo-1-(2-oxopropyl)-2,3-dihydro-1H-purin-7(6H)-yl)propanamide] | 11

The remaining lines, values ahead:

IC50 [nM] | SMILES
> 3200 | CCC(=O)Cn1c(=O)c2c(ncn2[C@@H](C)C(=O)Nc2cccc(-c3ccc(C(F)(F)F)nc3)n2)n(C)c1=O [Compound 116, (S)-2-(3-methyl-2,6-dioxo-1-(2-oxobutyl)-2,3-dihydro-1H-purin-7(6H)-yl)-N-(6′-(trifluoromethyl)-[2,3′-bipyridin]-6-yl)propanamide]
39 | C[C@@H](C(=O)Nc1cccc(-c2cnc(C(F)(F)F)nc2)n1)n1cnc2c1c(=O)n(Cc1ccccn1)c(=O)n2C [Compound 5, (S)-2-(3-methyl-2,6-dioxo-1-(pyridin-2-ylmethyl)-2,3-dihydro-1H-purin-7(6H)-yl)-N-(6-(2-(trifluoromethyl)pyrimidin-5-yl)pyridin-2-yl)propanamide]
2 | CC#CCn1c(=O)c2c(ncn2[C@@H](C)C(=O)Nc2csc(-c3cnc(N4CC5C(C4)C5(F)F)nc3)n2)n(C)c1=O (stereo partly drawn) [Compound 267, (2S)-2-(1-(but-2-ynyl)-3-methyl-2,6-dioxo-2,3-dihydro-1H-purin-7(6H)-yl)-N-(2-(2-(6,6-difluoro-3-azabicyclo[3.1.0]hexan-3-yl)pyrimidin-5-yl)thiazol-4-yl)propanamide]
9 | Cc1noc(Cn2c(=O)c3c(ncn3[C@@H](C)C(=O)Nc3cncc(-c4cnc(C)c(C(F)(F)F)c4)n3)n(C)c2=O)n1 [Compound 132, (S)-2-(3-methyl-1-((3-methyl-1,2,4-oxadiazol-5-yl)methyl)-2,6-dioxo-2,3-dihydro-1H-purin-7(6H)-yl)-N-(6-(6-methyl-5-(trifluoromethyl)pyridin-3-yl)pyrazin-2-yl)propanamide]
17 | Cc1cc(Cn2c(=O)c3c(ncn3[C@@H](C)C(=O)Nc3cncc(-c4ccc(C(F)(F)F)nc4)n3)n(C)c2=O)no1 [Compound 118, (S)-2-(3-methyl-1-((5-methylisoxazol-3-yl)methyl)-2,6-dioxo-2,3-dihydro-1H-purin-7(6H)-yl)-N-(6-(6-(trifluoromethyl)pyridin-3-yl)pyrazin-2-yl)propanamide]
5 | CC(=O)Cn1c(=O)c2c(ncn2[C@@H](C)C(=O)Nc2csc(-c3cnc(C(F)(F)F)c(C)c3)n2)n(C)c1=O [Compound 82, (S)-2-(3-methyl-2,6-dioxo-1-(2-oxopropyl)-2,3-dihydro-1H-purin-7(6H)-yl)-N-(2-(5-methyl-6-(trifluoromethyl)pyridin-3-yl)thiazol-4-yl)propanamide]
3 | CC(=O)Cn1c(=O)c2c(nc(C)n2CC(=O)Nc2cccc(-c3cnc(N4CCC[C@H]4C(F)(F)F)nc3)n2)n(C)c1=O [Compound 195]
7 | C[C@@H](C(=O)Nc1ccnc(-c2cnc(N3CCC[C@@H]3C(F)(F)F)nc2)n1)n1cnc2c1c(=O)n(CC#N)c(=O)n2C [Compound 49, (S)-2-(1-(cyanomethyl)-3-methyl-2,6-dioxo-2,3-dihydro-1H-purin-7(6H)-yl)-N-(2′-((R)-2-(trifluoromethyl)pyrrolidin-1-yl)-2,5′-bipyrimidin-4-yl)propanamide]
1 | CCOc1ncc(-c2cccc(NC(=O)[C@H](C)n3cnc4c3c(=O)n(CC(=O)CC)c(=O)n4C)n2)cc1C(F)(F)F [Compound 125, (S)—N-(6′-ethoxy-5′-(trifluoromethyl)-[2,3′-bipyridin]-6-yl)-2-(3-methyl-2,6-dioxo-1-(2-oxobutyl)-2,3-dihydro-1H-purin-7(6H)-yl)propanamide]
1 | Cc1noc(Cn2c(=O)c3c(ncn3[C@@H](C)C(=O)Nc3csc(-c4cnc(C(F)(F)F)c(C)c4)n3)n(C)c2=O)n1 [Compound 107, (S)-2-(3-methyl-1-((3-methyl-1,2,4-oxadiazol-5-yl)methyl)-2,6-dioxo-2,3-dihydro-1H-purin-7(6H)-yl)-N-(2-(5-methyl-6-(trifluoromethyl)pyridin-3-yl)thiazol-4-yl)propanamide]
28 | C[C@@H](C(=O)Nc1cncc(-c2ccc(C(F)(F)F)nc2)n1)n1cnc2c1c(=O)n(Cc1ccon1)c(=O)n2C [Compound 119, (S)-2-(1-(isoxazol-3-ylmethyl)-3-methyl-2,6-dioxo-2,3-dihydro-1H-purin-7(6H)-yl)-N-(6-(6-(trifluoromethyl)pyridin-3-yl)pyrazin-2-yl)propanamide]
